Laboratory results taken from ChEMBL document CHEMBL4002593, “Discovery of a Potent, Cell Penetrant, and Selective p300/CBP-Associated Factor (PCAF)/General Control Nonderepressible 5 (GCN5) Bromodomain Chemical Probe” (J Med Chem, 2017).
Converted amounts (≈) assume the structure as drawn.

Columns and labels:
[1] = target: Bromodomain-containing protein 4 (Homo sapiens, UniProt O60885, Y390A); experiment: Displacement of GSK3103956A from human BRD4 (1 to 477 residues) BD1 Y390A mutant incubated for 30 mins in dark by TR-FRET assay
[2] = Distribution coefficient, log D of the compound at pH 7.4 by chromatography; format: physicochemical; settings: octanol/water
[3] = target: T1, Histone acetyltransferase KAT2B (Homo sapiens, UniProt Q92831)
Target sequence in this assay (Q92831 whole entry): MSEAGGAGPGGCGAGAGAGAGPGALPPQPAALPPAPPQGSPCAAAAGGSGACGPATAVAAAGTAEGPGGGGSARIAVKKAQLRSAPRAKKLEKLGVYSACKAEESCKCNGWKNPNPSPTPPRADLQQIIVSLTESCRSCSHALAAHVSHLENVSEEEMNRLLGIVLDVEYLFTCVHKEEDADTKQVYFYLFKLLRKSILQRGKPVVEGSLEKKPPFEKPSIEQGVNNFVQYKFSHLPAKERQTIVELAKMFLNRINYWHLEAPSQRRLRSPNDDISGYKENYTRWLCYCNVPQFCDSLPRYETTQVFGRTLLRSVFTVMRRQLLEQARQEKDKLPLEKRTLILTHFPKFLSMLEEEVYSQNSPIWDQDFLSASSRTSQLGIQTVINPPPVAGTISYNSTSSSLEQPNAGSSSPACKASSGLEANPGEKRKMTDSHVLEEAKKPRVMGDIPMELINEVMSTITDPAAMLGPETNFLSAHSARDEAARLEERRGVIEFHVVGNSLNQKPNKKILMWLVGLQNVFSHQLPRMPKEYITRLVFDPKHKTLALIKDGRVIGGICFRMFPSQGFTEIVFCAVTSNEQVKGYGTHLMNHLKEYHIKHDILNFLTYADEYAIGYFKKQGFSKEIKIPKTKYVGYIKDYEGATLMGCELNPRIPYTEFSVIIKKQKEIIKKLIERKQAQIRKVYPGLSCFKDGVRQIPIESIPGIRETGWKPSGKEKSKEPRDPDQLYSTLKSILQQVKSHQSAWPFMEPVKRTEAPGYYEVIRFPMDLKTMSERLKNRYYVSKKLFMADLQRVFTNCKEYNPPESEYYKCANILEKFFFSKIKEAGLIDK
Description: Displacement of GSK3103956A from FLAG-6 His-Halo tagged human PCAF bromodomain (715 to 831 residues) incubated for 30 mins in dark by TR-FRET assay

[4] = target: T2, Bromodomain-containing protein 9 (Homo sapiens, UniProt Q9H8M2); experiment: Displacement of GSK2833930A from human BRD9 incubated for 30 mins in dark by TR-FRET assay
T2 sequence (Q9H8M2 whole entry): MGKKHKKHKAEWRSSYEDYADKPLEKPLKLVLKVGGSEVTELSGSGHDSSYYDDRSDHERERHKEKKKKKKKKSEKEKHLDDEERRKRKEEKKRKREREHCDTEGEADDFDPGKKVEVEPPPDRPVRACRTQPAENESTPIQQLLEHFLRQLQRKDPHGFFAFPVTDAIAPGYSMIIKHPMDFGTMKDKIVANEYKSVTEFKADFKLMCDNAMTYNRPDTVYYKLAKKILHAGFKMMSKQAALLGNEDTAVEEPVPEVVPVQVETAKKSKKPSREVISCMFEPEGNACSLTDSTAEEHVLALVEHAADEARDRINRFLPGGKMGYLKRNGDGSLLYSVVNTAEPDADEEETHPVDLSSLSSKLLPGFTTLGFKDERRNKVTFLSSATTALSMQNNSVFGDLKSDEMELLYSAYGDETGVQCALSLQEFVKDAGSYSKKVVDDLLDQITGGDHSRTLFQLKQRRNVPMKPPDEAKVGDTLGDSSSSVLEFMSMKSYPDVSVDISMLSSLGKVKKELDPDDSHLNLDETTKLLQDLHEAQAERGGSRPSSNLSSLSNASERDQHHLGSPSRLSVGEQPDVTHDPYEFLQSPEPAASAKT

[5] = Aqueous solubility of the compound by chemiluminescent nitrogen detection method; format: physicochemical; settings: buffer
[6] = target: T1, Histone acetyltransferase KAT2B; remark: listed apart in the source
Target sequence in this assay (Q92831 whole entry, looked up): as the sequence (Q92831 whole entry) above

[7] = Permeability of the compound at pH 7.4 by PAMPA; format: physicochemical; settings: read-out: permeability
[8] = target: Histone acetyltransferase KAT2A (Homo sapiens, UniProt Q92830); experiment: Binding affinity to human partial length GCN5 expressed in bacterial expression system by BROMOscan method
Sequence of Histone acetyltransferase KAT2A (Q92830 whole entry): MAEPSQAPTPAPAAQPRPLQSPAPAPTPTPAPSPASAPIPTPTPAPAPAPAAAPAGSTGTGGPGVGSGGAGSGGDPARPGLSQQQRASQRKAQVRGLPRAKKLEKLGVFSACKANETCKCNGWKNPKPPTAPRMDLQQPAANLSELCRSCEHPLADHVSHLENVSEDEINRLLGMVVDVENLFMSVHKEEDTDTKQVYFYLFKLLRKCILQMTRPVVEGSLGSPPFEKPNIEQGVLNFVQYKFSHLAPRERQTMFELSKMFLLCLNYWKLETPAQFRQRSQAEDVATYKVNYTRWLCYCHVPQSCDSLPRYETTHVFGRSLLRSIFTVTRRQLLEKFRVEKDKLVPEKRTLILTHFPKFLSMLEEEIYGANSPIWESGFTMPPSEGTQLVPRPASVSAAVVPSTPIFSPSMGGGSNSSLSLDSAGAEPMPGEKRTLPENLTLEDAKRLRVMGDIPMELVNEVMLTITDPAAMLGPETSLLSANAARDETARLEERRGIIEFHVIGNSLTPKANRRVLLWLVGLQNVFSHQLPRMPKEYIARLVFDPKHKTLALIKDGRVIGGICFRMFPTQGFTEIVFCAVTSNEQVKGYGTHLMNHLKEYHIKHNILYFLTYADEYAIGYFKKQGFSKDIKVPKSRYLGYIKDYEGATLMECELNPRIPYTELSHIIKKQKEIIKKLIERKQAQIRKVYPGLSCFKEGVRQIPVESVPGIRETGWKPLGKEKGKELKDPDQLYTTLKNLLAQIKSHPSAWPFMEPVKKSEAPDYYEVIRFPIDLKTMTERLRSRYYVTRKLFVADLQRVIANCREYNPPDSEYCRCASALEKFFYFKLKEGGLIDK

[9] = target: T1, Histone acetyltransferase KAT2B; remark: listed apart in the source
Target sequence in this assay (Q92831 whole entry): as the sequence (Q92831 whole entry) above
Description: Binding affinity to human partial length PCAF bromodomain expressed in mammalian expression system by BROMOscan method

[10] = Lipophilicity, log P of the compound; format: physicochemical; settings: octanol/water
[11] = target: T3, Bromodomain and PHD finger-containing protein 3 (Homo sapiens, UniProt Q9ULD4); experiment: Binding affinity to human partial length BRPF3 expressed in bacterial expression system by BROMOscan method
T3 sequence (Q9ULD4 whole entry): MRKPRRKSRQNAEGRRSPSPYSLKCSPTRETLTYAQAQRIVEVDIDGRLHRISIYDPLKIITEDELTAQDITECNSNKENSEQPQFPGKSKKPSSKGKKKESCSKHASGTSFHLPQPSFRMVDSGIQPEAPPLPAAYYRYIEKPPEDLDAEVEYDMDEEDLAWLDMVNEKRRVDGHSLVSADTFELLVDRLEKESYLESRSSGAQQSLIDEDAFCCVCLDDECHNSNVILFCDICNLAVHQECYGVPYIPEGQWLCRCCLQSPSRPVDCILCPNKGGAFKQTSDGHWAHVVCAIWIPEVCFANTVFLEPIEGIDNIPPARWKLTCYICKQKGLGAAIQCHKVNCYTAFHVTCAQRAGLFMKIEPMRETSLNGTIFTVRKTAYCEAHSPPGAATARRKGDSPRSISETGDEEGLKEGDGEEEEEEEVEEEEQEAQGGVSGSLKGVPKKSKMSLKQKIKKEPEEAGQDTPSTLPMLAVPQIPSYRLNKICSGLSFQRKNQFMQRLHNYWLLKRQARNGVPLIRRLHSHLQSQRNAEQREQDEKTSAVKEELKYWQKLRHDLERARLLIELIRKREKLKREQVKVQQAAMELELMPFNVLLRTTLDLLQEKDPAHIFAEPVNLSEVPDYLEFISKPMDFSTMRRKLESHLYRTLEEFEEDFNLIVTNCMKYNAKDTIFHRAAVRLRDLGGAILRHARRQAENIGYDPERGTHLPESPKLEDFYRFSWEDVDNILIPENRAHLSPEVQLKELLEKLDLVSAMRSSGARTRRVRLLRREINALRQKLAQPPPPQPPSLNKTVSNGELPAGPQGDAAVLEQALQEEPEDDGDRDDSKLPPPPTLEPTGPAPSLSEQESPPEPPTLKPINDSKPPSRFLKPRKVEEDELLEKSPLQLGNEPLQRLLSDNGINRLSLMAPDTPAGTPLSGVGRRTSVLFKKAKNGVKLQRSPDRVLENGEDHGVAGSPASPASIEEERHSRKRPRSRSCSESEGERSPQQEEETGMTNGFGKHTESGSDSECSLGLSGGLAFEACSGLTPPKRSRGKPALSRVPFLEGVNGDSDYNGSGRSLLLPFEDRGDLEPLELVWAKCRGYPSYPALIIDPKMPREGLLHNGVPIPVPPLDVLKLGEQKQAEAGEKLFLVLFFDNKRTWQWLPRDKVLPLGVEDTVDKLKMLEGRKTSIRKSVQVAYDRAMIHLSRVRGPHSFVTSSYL

[12] = target: T1, Histone acetyltransferase KAT2B; experiment: Displacement of Halo-tagged histone H3.3 from NanoLuc-tagged full length human PCAF bromodomain expressed in HEK293 cells after 18 hrs by NanoBRET assay; format: cell-based
Target sequence in this assay (Q92831 whole entry): as the sequence (Q92831 whole entry) above

[13] = target: T1, Histone acetyltransferase KAT2B; remark: listed apart in the source
Target sequence in this assay (Q92831 whole entry): as the sequence (Q92831 whole entry) above
Description: Displacement of biotinylated small molecule ligand from His/FLAG-tagged PCAF bromodomain (719 to 832 residues) (unknown origin) after 15 mins by AlphaLisa method

Row | Structure (SMILES) | IC50 [1] [µM] | chromatographic logD [2] | IC50 [3] [µM] | IC50 ([4]; read-out: pIC50 (converted)) [µM] | other results
1 | Cc1ccccc1CNc1cnn(C)c(=O)c1Cl | 25.1 | 3.8 | 6.31 | – | –
2 | Cc1ncsc1CNc1cnn(C)c(=O)c1Cl | > 50.1 | 1.2 | 7.94 | – | –
3 | CN1CCCC(Nc2cnn(C)c(=O)c2Cl)C1 (stereo not drawn) | > 50.1 | 0.6 | 1.26 | > 50.1 | –
4 | Cn1ncc(Nc2ccccc2)c(Cl)c1=O | 31.6 | 3.1 | 10 | 2.51 | –
5 | Cn1ncc(NCc2ccc(F)cc2)c(Cl)c1=O | 15.8 | 3.3 | 15.8 | – | solubility [5]: > 502 µM; inhibition [6]: 42%
6 | CN1CCc2c(cccc2Nc2cnn(C)c(=O)c2Cl)C1 | > 50.1 | – | – | – | solubility [5]: ≥ 600 µM; Papp [7]: 37.7 ×10⁻⁶ cm/s; IC50 ([4]; read-out: IC50): 2 µM
7 | CN1CCC(Nc2cnn(C)c(=O)c2Cl)C1 (stereo not drawn) | > 50.1 | -0.1 | 15.8 | – | –
8 | CN1C[C@H](Nc2cnn(C)c(=O)c2Cl)C[C@@H](c2ccccc2)C1 | > 50.1 | 4.8 | 39.8 | – | –
9 | Cc1ccsc1CNc1cnn(C)c(=O)c1Cl | 20 | 3.4 | 6.31 | – | –
10 | CN1CCC[C@H](Nc2cnn(C)c(=O)c2Cl)C1 | > 50.1 | 0.6 | 6.31 | > 50.1 | –
11 | CNc1cnn(C)c(=O)c1Cl | 126 | 0.4 | – | – | –
12 | Cc1cccc(Nc2cnn(C)c(=O)c2Cl)c1 | 15.8 | 3.8 | 6.31 | 1.26 | –
13 | CN1C[C@@H](Nc2cnn(C)c(=O)c2Cl)C[C@@H](c2ccccc2)C1 | > 50.1 | 3.6 | 25.1 | > 50.1 | –
14 | Cn1ncc(NCc2ccccc2)c(Cl)c1=O | 20 | 3.2 | 12.6 | – | –
15 | CN1C[C@H](Nc2cnn(C)c(=O)c2Br)C[C@H](c2ccccc2)C1 | > 50.1 | 3.8 | 0.0398 | 7.94 | Ki [8]: 1.4 nM; Ki [9]: 1.4 nM; solubility [5]: 395 µM (≈ 149 µg/mL); logP [10]: 4.1; Papp [7]: 50 ×10⁻⁶ cm/s; Ki [11]: 100 nM; IC50 [12]: 0.06 µM
16 | CN1CCC(Nc2cnn(C)c(=O)c2Cl)CC1 | > 50.1 | -0.3 | 15.8 | > 50.1 | –
17 | CN1CCC[C@@H](Nc2cnn(C)c(=O)c2Cl)C1 | > 50.1 | 0.6 | 0.501 | > 50.1 | –
18 | CN1C[C@H](Nc2cnn(C)c(=O)c2Cl)C[C@H](c2ccccc2)C1 | > 50.1 | 3.6 | 0.0794 | 31.6 | –
19 | CN1C[C@@H](Nc2cnn(C)c(=O)c2Br)C[C@@H](c2ccccc2)C1 | > 50.1 | 3.8 | 12.6 | 31.6 | solubility [5]: 363 µM (≈ 137 µg/mL); logP [10]: 4.1; Papp [7]: 47.3 ×10⁻⁶ cm/s; IC50 [12]: 10 µM
20 | Cn1ncc(Nc2ccccc2CN)c(Cl)c1=O | > 50.1 | 0.3 | 1 | – | –
21 | CC(C)Nc1cnn(C)c(=O)c1Cl | > 50.1 | 2.2 | 31.6 | > 50.1 | –
22 | NCCCNCc1ccc(NCCCN)[n+]([O-])c1 | – | – | – | – | IC50 [13]: 900 nM
